# Measured values from EPA's ToxRefDB 2.
# Tests used:
# mouse [1] = details: Subchronic oral toxicity in rodents, Feed, dose end: 13 week, group: systemic, systemic / in life observation / body weight / body weight
# mouse [2] = details: Subchronic oral toxicity in rodents, b6c3f1, Feed, dose end: 13 week, group: systemic
# mouse [3] = details: Combined chronic toxicity/carcinogenicity, b6c3f1, Oral, Feed, dose end: 24 month, group: systemic
# dog [4] = details: Subchronic oral toxicity in nonrodent, beagle, Gavage/Intubation, dose end: 18 week, group: systemic, systemic / in life observation / body weight / body weight + systemic / in life observation / clinical signs / ataxia + systemic / in life …
# rat [5] = details: Developmental neurotoxicity range-finding study; sprague dawley; Oral; Feed; group: cannot be grouped; developmental / offspring survival late / [other] / [other] + systemic / in life observation / body weight / litter weight
# dog [6] = details: Chronic toxicity, beagle, Oral, Feed, dose end: 53 week, group: systemic
# rat [7] = details: Developmental neurotoxicity study; sprague dawley; Oral; Gavage/Intubation; dose end: 63 PND; group: cannot be grouped; systemic / in life observation / body weight / offspring (pup) weight
# rat [8] = details: Chronic toxicity; other; Oral; Feed; dose end: 74 week; group: systemic; systemic / in life observation / body weight / body weight + systemic / in life observation / clinical signs / convulsions + systemic / in …
# mouse [9] = details: Subchronic oral toxicity in rodents, b6c3f1, Feed, dose end: 6 week, group: systemic, systemic / in life observation / mortality / mortality
# rat [10] = details: Subchronic oral toxicity in rodents, other, Feed, dose end: 6 week, group: systemic, systemic / in life observation / body weight / body weight + systemic / in life observation / mortality / mortality
# mouse [11] = details: Chronic toxicity; b6c3f1; Oral; Feed; dose end: 80 week; group: systemic; systemic / in life observation / clinical signs / alopecia + systemic / in life observation / clinical signs / distended abdomens + systemic…
# rabbit = details: Prenatal developmental toxicity study, dutch, Oral, Gavage/Intubation, dose end: 18 GD
# rat [12] = details: Combined chronic toxicity/carcinogenicity; fischer; Oral; Feed; dose end: 24 month; group: systemic; systemic / clinical chemistry / alanine aminotransferase (alt/sgpt) / alanine aminotransferase (alt/sgpt) + systemic / in life observation…
# mouse [13] = details: Carcinogenicity; Oral; Feed; dose end: 24 month; group: systemic; systemic / pathology microscopic / skin / fibrosarcoma + systemic / clinical chemistry / aminopyrine-n-demethylase / aminopyrine-n-…
# rat [14] = details: Subchronic oral toxicity in rodents, sprague dawley, Feed, dose end: 13 week, group: systemic, systemic / clinical chemistry / aspartate aminotransferase (ast/sgot) / aspartate aminotransferase (ast/sgot) + systemic / clinical …
# rat [15] = details: Combined chronic toxicity/carcinogenicity, sprague dawley, Oral, Feed, dose end: 2 year, group: systemic
# mouse [16] = details: Combined chronic toxicity/carcinogenicity, cd1, Oral, Feed, dose end: 18 month, group: systemic
# rat [17] = details: Combined chronic toxicity/carcinogenicity, sprague dawley, Oral, Feed, dose end: 2 year, group: systemic; remark: listed apart in the source
# rat [18] = details: Multigenerational reproductive toxicity study, sprague dawley, Oral, Feed, dose end: 2 generation
# dog [19] = details: Chronic toxicity; beagle; Oral; Capsule; dose end: 52 week; group: systemic; systemic / in life observation / clinical signs / defecation (diarrhea) + systemic / in life observation / clinical signs / vomitting + …
# mouse [20] = details: Carcinogenicity, cd1, Oral, Feed, dose end: 78 week, group: systemic
# dog [21] = details: Subchronic oral toxicity in nonrodent, beagle, Capsule, dose end: 93 day, group: systemic
# rat [22] = details: Combined chronic toxicity/carcinogenicity, fischer, Oral, Feed, dose end: 104 week, group: systemic
# rat [23] = details: Prenatal developmental toxicity study, sprague dawley, Oral, Gavage/Intubation, dose end: 15 GD
# rat [24] = details: Subchronic oral toxicity in rodents, fischer, Feed, dose end: 90 day, group: systemic
# [25] = systemic / in life observation / body weight / body weight
# [26] = systemic / pathology microscopic / kidney / vacuolization
# [27] = systemic / pathology microscopic / kidney / vacuolization + systemic / in life observation / body weight / body weight + systemic / …
# [28] = systemic / in life observation / clinical signs / pupillary function (dilation or constriction)
# [29] = systemic / in life observation / clinical signs / pupillary function (dilation or constriction) + systemic / clinical chemistry / protein / …
# [30] = group: developmental, developmental / developmental malformation / bone / [other] + developmental / developmental malformation / bone / full supernumerary + …
# [31] = group: maternal, reproductive / reproductive performance / aborted / aborted + reproductive / reproductive performance / resorptions / resorptions + systemic…
# [32] = systemic / organ weight / liver / relative to body weight
# [33] = systemic / organ weight / liver / relative to body weight + systemic / clinical chemistry / cholesterol / cholesterol
# [34] = systemic / in life observation / clinical signs / amyloidosis + systemic / organ weight / brain / relative to brain weight + systemic / …
# [35] = systemic / organ weight / liver / relative to brain weight + systemic / organ weight / gallbladder / relative to brain weight
# [36] = systemic / organ weight / liver / relative to body weight + systemic / organ weight / thyroid gland / absolute + systemic / pathology gross…
# [37] = group: offspring, systemic / in life observation / body weight / offspring (pup) weight
# [38] = group: parental, systemic / in life observation / body weight / body weight gain + systemic / in life observation / food consumption / food consumption + …
# [39] = group: reproductive, reproductive / offspring survival early / litter size / litter size
# [40] = systemic / pathology microscopic / stomach / dysplasia
# [41] = systemic / in life observation / clinical signs / defecation (diarrhea) + systemic / in life observation / clinical signs / vomitting + …
# [42] = systemic / clinical chemistry / creatine phosphokinase / creatine phosphokinase + systemic / organ weight / liver / absolute + systemic / …
# [43] = group: developmental, developmental / developmental malformation / bone / full supernumerary
# [44] = group: maternal, systemic / in life observation / body weight / body weight gain + systemic / in life observation / water consumption / water consumption
# [45] = group: maternal, systemic / in life observation / body weight / body weight gain + systemic / in life observation / water consumption / water consumption + …
# [46] = systemic / in life observation / body weight / body weight gain + systemic / organ weight / brain / relative to body weight + systemic / …
# [47] = systemic / organ weight / liver / relative to body weight + systemic / clinical chemistry / beta globulin / beta globulin + systemic / …
smiles,measurement,setting,value
O=C(O)c1cccc(Cl)n1 [6-Chloro-2-picolinic acid],LEL,mouse [1],800 mg/kg/day
same,LOAEL,mouse [1],800 mg/kg/day
same,NEL,mouse [1],400 mg/kg/day
same,NOAEL,mouse [1],400 mg/kg/day
same,LEL,mouse [2]; [25],400 mg/kg/day
same,NEL,mouse [2]; [25],150 mg/kg/day
same,LOAEL,mouse [2]; [26],900 mg/kg/day
same,NOAEL,mouse [2]; [27],700 mg/kg/day
same,NOAEL,mouse [3]; [26],300 mg/kg/day
same,LOAEL,mouse [3]; systemic / pathology microscopic / kidney / vacuolization + systemic / in life observation / body weight / body weight,900 mg/kg/day
same,LEL,mouse [3]; [27],900 mg/kg/day
same,NEL,mouse [3]; systemic / pathology microscopic / liver / carcinoma + systemic / organ weight / liver / absolute + systemic / organ weight / liver / …,300 mg/kg/day
CC[C@H](C)[C@H]1O[C@]2(C=C[C@@H]1C)C[C@@H]1C[C@@H](C/C=C(\C)[C@@H](O[C@H]3C[C@H](OC)[C@@H](O[C@H]4C[C@H](OC)[C@@H](O)[C@H](C)O4)[C@H](C)O3)[C@@H](C)/C=C/C=C3\CO[C@@H]4[C@H](O)C(C)=C[C@@H](C(=O)O1)[C@]34O)O2.CO[C@H]1C[C@H](O[C@H]2[C@H](C)O[C@@H](O[C@@H]3/C(C)=C/C[C@@H]4C[C@@H](C[C@]5(C=C[C@H](C)[C@@H](C(C)C)O5)O4)OC(=O)[C@@H]4C=C(C)[C@@H](O)[C@H]5OC/C(=C\C=C\[C@@H]3C)[C@]54O)C[C@@H]2OC)O[C@@H](C)[C@@H]1O [Abamectin],LEL,dog [4],0.5 mg/kg/day
same,LOAEL,dog [4],0.5 mg/kg/day
same,NEL,dog [4],0.25 mg/kg/day
same,NOAEL,dog [4],0.25 mg/kg/day
same,LEL,rat [5],0.876 mg/kg/day
same,LOAEL,rat [5],0.876 mg/kg/day
same,NEL,rat [5],0.604 mg/kg/day
same,NOAEL,rat [5],0.604 mg/kg/day
same,LEL,dog [6]; [28],0.5 mg/kg/day
same,LOAEL,dog [6]; [28],0.5 mg/kg/day
same,NEL,dog [6]; [29],0.25 mg/kg/day
same,NOAEL,dog [6]; [29],0.25 mg/kg/day
same,LEL,rat [7],0.4 mg/kg/day
same,LOAEL,rat [7],0.4 mg/kg/day
same,NEL,rat [7],0.2 mg/kg/day
same,NOAEL,rat [7],0.2 mg/kg/day
ClC1=C(Cl)[C@]2(Cl)[C@H]3[C@H]([C@@H]4C=C[C@H]3C4)[C@@]1(Cl)C2(Cl)Cl [Aldrin],LEL,rat [8],1.5 mg/kg/day
same,LOAEL,rat [8],1.5 mg/kg/day
same,NEL,rat [8],< 1.5 mg/kg/day
same,NOAEL,rat [8],< 1.5 mg/kg/day
same,LEL,mouse [9],6 mg/kg/day
same,LOAEL,mouse [9],> 12 mg/kg/day
same,NEL,mouse [9],3 mg/kg/day
same,NOAEL,mouse [9],≥ 12 mg/kg/day
same,LEL,rat [10],8 mg/kg/day
same,LOAEL,rat [10],> 16 mg/kg/day
same,NEL,rat [10],4 mg/kg/day
same,NOAEL,rat [10],≥ 16 mg/kg/day
same,LEL,mouse [11],0.45 mg/kg/day
same,LOAEL,mouse [11],> 0.9 mg/kg/day
same,NEL,mouse [11],< 0.45 mg/kg/day
same,NOAEL,mouse [11],≥ 0.9 mg/kg/day
Cn1cc(-c2ccccc2)c(=O)c(-c2cccc(C(F)(F)F)c2)c1 [Fluridone],LEL,rabbit; [30],750 mg/kg/day
same,LOAEL,rabbit; [30],> 750 mg/kg/day
same,NEL,rabbit; [30],300 mg/kg/day
same,NOAEL,rabbit; [30],≥ 750 mg/kg/day
same,LEL,rabbit; [31],300 mg/kg/day
same,LOAEL,rabbit; [31],300 mg/kg/day
same,NEL,rabbit; [31],125 mg/kg/day
same,NOAEL,rabbit; [31],125 mg/kg/day
same,LEL,rat [12],25.1 mg/kg/day
same,LOAEL,rat [12],> 80.8 mg/kg/day
same,NEL,rat [12],7.65 mg/kg/day
same,NOAEL,rat [12],≥ 80.8 mg/kg/day
same,LEL,mouse [13],50 mg/kg/day
same,LOAEL,mouse [13],> 50 mg/kg/day
same,NEL,mouse [13],15 mg/kg/day
same,NOAEL,mouse [13],≥ 50 mg/kg/day
CCC(CC)Nc1c([N+](=O)[O-])cc(C)c(C)c1[N+](=O)[O-] [Pendimethalin],LEL,rat [14],7.6 mg/kg/day
same,LOAEL,rat [14],382 mg/kg/day
same,NEL,rat [14],< 7.6 mg/kg/day
same,NOAEL,rat [14],39.2 mg/kg/day
same,LOAEL,rat [15]; [32],51 mg/kg/day
same,NOAEL,rat [15]; [32],< 51 mg/kg/day
same,LEL,rat [15]; [33],51 mg/kg/day
same,NEL,rat [15]; [33],< 51 mg/kg/day
same,LOAEL,mouse [16]; [34],622 mg/kg/day
same,NOAEL,mouse [16]; [34],62.3 mg/kg/day
same,LEL,mouse [16]; [35],12.3 mg/kg/day
same,NEL,mouse [16]; [35],< 12.3 mg/kg/day
same,LEL,rat [17]; systemic / in life observation / body weight / body weight gain + systemic / pathology gross / liver / accentuated lobular pattern,25 mg/kg/day
same,LOAEL,rat [17]; [36],> 250 mg/kg/day
same,NOAEL,rat [17]; [36],≥ 250 mg/kg/day
same,NEL,rat [17]; systemic / pathology microscopic / thyroid gland / adenoma + systemic / clinical chemistry / albumin / albumin + systemic / clinical …,5 mg/kg/day
same,LEL,rat [18]; [37],215 mg/kg/day
same,LOAEL,rat [18]; [37],215 mg/kg/day
same,NEL,rat [18]; [37],42 mg/kg/day
same,NOAEL,rat [18]; [37],42 mg/kg/day
same,LEL,rat [18]; [38],173 mg/kg/day
same,LOAEL,rat [18]; [38],173 mg/kg/day
same,NEL,rat [18]; [38],36 mg/kg/day
same,NOAEL,rat [18]; [38],36 mg/kg/day
same,LEL,rat [18]; [39],215 mg/kg/day
same,LOAEL,rat [18]; [39],215 mg/kg/day
same,NEL,rat [18]; [39],42 mg/kg/day
same,NOAEL,rat [18]; [39],42 mg/kg/day
CCc1nn(C)c(C(=O)NCc2ccc(C(C)(C)C)cc2)c1Cl [Tebufenpyrad],LEL,dog [19],6 mg/kg/day
same,LOAEL,dog [19],6 mg/kg/day
same,NEL,dog [19],1 mg/kg/day
same,NOAEL,dog [19],1 mg/kg/day
same,LOAEL,mouse [20]; systemic / in life observation / body weight / body weight gain,64.4 mg/kg/day
same,NOAEL,mouse [20]; systemic / in life observation / body weight / body weight gain + systemic / in life observation / body weight / body weight + systemic / …,3.6 mg/kg/day
same,LEL,mouse [20]; [40],4.2 mg/kg/day
same,NEL,mouse [20]; [40],< 4.2 mg/kg/day
same,LOAEL,dog [21]; systemic / in life observation / clinical signs / defecation (diarrhea) + systemic / in life observation / clinical signs / vomitting,10 mg/kg/day
same,LEL,dog [21]; [41],10 mg/kg/day
same,NEL,dog [21]; [41],2 mg/kg/day
same,NOAEL,dog [21]; [41],2 mg/kg/day
same,LEL,rat [22]; [42],0.21 mg/kg/day
same,NEL,rat [22]; [42],< 0.21 mg/kg/day
same,NOAEL,rat [22]; [42],0.82 mg/kg/day
same,LOAEL,rat [22]; systemic / organ weight / liver / absolute + systemic / organ weight / liver / relative to body weight + systemic / clinical chemistry / …,6.52 mg/kg/day
same,LEL,rat [23]; [43],90 mg/kg/day
same,LOAEL,rat [23]; [43],90 mg/kg/day
same,NEL,rat [23]; [43],50 mg/kg/day
same,NOAEL,rat [23]; [43],50 mg/kg/day
same,LEL,rat [23]; [44],50 mg/kg/day
same,LOAEL,rat [23]; [44],50 mg/kg/day
same,NEL,rat [23]; [45],15 mg/kg/day
same,NOAEL,rat [23]; [45],15 mg/kg/day
same,LOAEL,rat [24]; [46],29 mg/kg/day
same,NOAEL,rat [24]; [46],6.8 mg/kg/day
same,LEL,rat [24]; [47],0.7 mg/kg/day
same,NEL,rat [24]; [47],< 0.7 mg/kg/day
